Source: patent US20240197695A1, “COMPOUND FOR PREVENTION OR TREATMENT OF KIDNEY DISEASE” (ONCOCROSS CO.,LTD, priority 2021, published 2024)
Where two headings read alike, the source gives them in different places. Marks after values point to notes of the source that are not given here.

Experiments:
Format in all cases: in vivo, mice (C57BL/6)
[1] = Body weights of mice in diabetic nephrosis model
Experimental: (§1) STZ (Sigma-aldrich, S0130, 40 mg/kg b.w., in 0.1 M citrate buffer pH 4.5) was intraperitoneally administered to 9-week-old male mice (C57BL/6) once/1 day for 5 days to perform a first disease induction. After 7 weeks of the first induction, a second induction was performed using the same method as the first induction. For 5 days of an STZ administration period for the first induction, 10% sucrose was administered as drinking water. In addition, after 14 days of the second administration, blood glucose levels were confirmed to confirm the induction rate, and the induced animals were separated into groups. Experimental substances (R)-4-{(R)-1-[7-(3,4,5-trimethoxy-phenyl)-[1,6] naphthyridin-5-yloxy]-ethyl}pyrrolidin-2-one (BI-1002494) and cromolyn (OC-101) were administered orally into the stomach at 10 mL/kg using an administration syringe (sonde) before 16:00 daily for 12 weeks at a frequency of 7 days/week at doses shown in Table 1 below, and dexamethasone was orally administered as a positive control substance.

[2] = Feed intake of mice in diabetic nephrosis model; design: Feed intake, Mean: unit not given here
Experimental: as §1

[3] = Drinking water intake of mice in diabetic nephrosis model; design: unit not given here
Experimental: as §1

[4] = system: diabetic nephrosis animal models; experiment: Changes in blood glucose levels (tail vein, blood glucose level meter)
Experimental: as §1
Before disease induction, excluding week 9 of administration of experimental substances to mice in each group of Example 1 above, after 2 weeks after the first induction (based on a first administration date), and after 6 weeks and 2 weeks of the second induction (based on the first administration date), blood was collected from the tail vein and blood glucose levels were measured using a blood glucose level meter (Accu-Check, Roche), and fasting was performed for 4 hours from 9:30 a.m. to 1:30.

[5] = system: diabetic nephrosis animal models; conditions: for CRE, Mean / GLU, Mean / T-CHO, Mean: after observation period, fasted
Experimental: as §1
(§2) After the observation period for mice of each group in Example 1 was terminated, all surviving animals were fasted in the same manner as when measuring blood glucose levels, and then anesthetized by inhaling isoflurane, and blood was collected from the abdominal vena cava through laparotomy. After the blood collection was completed, the veins and arteries were cut under anesthesia and exsanguinated. The collected blood was left at room temperature for 30 minutes or more and then centrifuged at 3,000 rpm for 20 minutes. Thereafter, glucose, Blood urea nitrogen (BUN), and creatinine were analyzed using an automated blood biochemistry analyzer (Hitachi 3100, Hitachi Co. Ltd., Japan). Indoxyl sulfate (a substance that was mainly produced in the intestines to cause renal injury, and a substance that caused end-stage renal failure by advancing renal function damage in patients with renal failure during hemodialysis) was analyzed using LC MS/MS. In addition, blood insulin was analyzed according to a method represented by a commercial Mouse Insulin ELISA KIT (#AKRIN-011T, Sibayagi Co. Ltd., Japan).

[6] = system: diabetic nephrosis animal models; experiment: Blood insulin (Mouse Insulin ELISA KIT) and HOMA-IR; conditions: for HOMA-IR, Mean / Insulin, Mean: after observation period, fasted
Experimental: as §1, §2

[7] = system: diabetic nephrosis animal models; experiment: Blood indoxyl sulfate by LC MS/MS; conditions: after observation period, fasted
Experimental: as §1, §2

[8] = system: diabetic nephrosis animal models; experiment: Histopathological change (H&E) in liver, kidney, pancreas; conditions: count in group of 10 animals
Experimental: as §1
At the end of the observation period, the mice in each group of Example 1 were confirmed to be dead, and the liver, kidney, and pancreas were extracted and fixed with 10% neutral buffered formalin (NBF) in at least 20 times the tissue volume. The fixed tissue was sectioned to a thickness of approximately 4 mm and then produced into a paraffin block through general tissue processing and embedding processes. Thereafter, the tissue was sectioned to a thickness of 4 μm using a rotary microtome, and then H&E staining was performed, and histopathological changes were observed.

## C[C@@H]1C[C@H]2[C@@H]3CCC4=CC(=O)C=C[C@]4(C)[C@@]3(F)[C@@H](O)C[C@]2(C)[C@@]1(O)C(=O)CO [Dexa, dexamethasone, reference compound]
[1]; 2 mg/kg/day oral, week 0
  Body weight, Mean: 24 g
[1]; 2 mg/kg/day oral, week 1
  Body weight, Mean: 23.5 g
[1]; 2 mg/kg/day oral, week 2
  Body weight, Mean: 23.6 g
[1]; 2 mg/kg/day oral, week 3
  Body weight, Mean: 23.6 g
[1]; 2 mg/kg/day oral, week 4
  Body weight, Mean: 23.6 g
[1]; 2 mg/kg/day oral, week 5
  Body weight, Mean: 23.7 g
[1]; 2 mg/kg/day oral, week 6
  Body weight, Mean: 23.6 g
[1]; 2 mg/kg/day oral, week 7
  Body weight, Mean: 23.8 g
[1]; 2 mg/kg/day oral, week 8
  Body weight, Mean: 23.6 g
[1]; 2 mg/kg/day oral, week 10
  Body weight, Mean: 23.3 g
[2]; 2 mg/kg/day oral, week 0
  Feed intake, Mean: 6.71
[2]; 2 mg/kg/day oral, week 1
  Feed intake, Mean: 5.48
[2]; 2 mg/kg/day oral, week 2
  Feed intake, Mean: 5.80
[2]; 2 mg/kg/day oral, week 3
  Feed intake, Mean: 5.84
[2]; 2 mg/kg/day oral, week 4
  Feed intake, Mean: 5.89
[2]; 2 mg/kg/day oral, week 5
  Feed intake, Mean: 5.65
[2]; 2 mg/kg/day oral, week 6
  Feed intake, Mean: 5.30
[2]; 2 mg/kg/day oral, week 7
  Feed intake, Mean: 5.56
[2]; 2 mg/kg/day oral, week 8
  Feed intake, Mean: 5.21
[2]; 2 mg/kg/day oral, week 9
  Feed intake, Mean: 5.29
[2]; 2 mg/kg/day oral, week 10
  Feed intake, Mean: 5.64
[3]; 2 mg/kg/day oral, week 0
  Drinking water intake, Mean: 7.07
[3]; 2 mg/kg/day oral, week 1
  Drinking water intake, Mean: 7.73
[3]; 2 mg/kg/day oral, week 2
  Drinking water intake, Mean: 7.06
[3]; 2 mg/kg/day oral, week 3
  Drinking water intake, Mean: 7.69
[3]; 2 mg/kg/day oral, week 4
  Drinking water intake, Mean: 7.69
[3]; 2 mg/kg/day oral, week 5
  Drinking water intake, Mean: 7.10
[3]; 2 mg/kg/day oral, week 6
  Drinking water intake, Mean: 7.35
[3]; 2 mg/kg/day oral, week 7
  Drinking water intake, Mean: 7.19
[3]; 2 mg/kg/day oral, week 8
  Drinking water intake, Mean: 7.83
[3]; 2 mg/kg/day oral, week 9
  Drinking water intake, Mean: 7.45
[3]; 2 mg/kg/day oral, week 10
  Drinking water intake, Mean: 7.19
[4]; 2 mg/kg/day oral, week 0, 4 h fasting, in mg/dL (unit assumed)
  Blood glucose level, Mean: 307.1
[4]; 2 mg/kg/day oral, week 2, 4 h fasting, in mg/dL (unit assumed)
  Blood glucose level, Mean: 309.1
[4]; 2 mg/kg/day oral, week 4, 4 h fasting, in mg/dL (unit assumed)
  Blood glucose level, Mean: 329.2
[4]; 2 mg/kg/day oral, week 6, 4 h fasting, in mg/dL (unit assumed)
  Blood glucose level, Mean: 336.9
[4]; 2 mg/kg/day oral, week 8, 4 h fasting
  Blood glucose level, Mean: 286.1^#
[4]; 2 mg/kg/day oral, week 10, 4 h fasting, in mg/dL (unit assumed)
  Blood glucose level, Mean: 331.4
[5]; 2 mg/kg/day oral
  CRE, Mean: 0.1 mg/dL
  GLU, Mean: 335.6^# mg/dL
  T-CHO, Mean: 139.0 mg/dL
[6]; 2 mg/kg/day oral
  HOMA-IR, Mean: 11.2^#
  Insulin, Mean: 0.6 ng/mL
[7]; 2 mg/kg/day oral
  Indoxyl sulfate, Mean: 2.5^# μg/mL
[8]; G3, 2 mg/kg oral
  Kidney: Medullar apoptosis: 1
  Kidney: Medullar mineralization: 1
  Kidney: NHL: 6
  Kidney: bowman's capsule hyperplasia: 2
  Kidney: pappillary mineralization: 0
  Liver: Apoptosis: 4
  Liver: Cytoplasmic glycogen: 0
  Liver: Eosinophlic focus of cellular alteration: 3
  Liver: Mononuclear cell infiltrate: 0
  Liver: NHL: 5
  Pancrease: Apoptosis: 0
  Pancrease: NHL: 8
  Pancrease: islet degeneration: 1
  Pancrease: islet hypertrophy: 0
  Pancrease: islet, mononuclear cell infillitrate: 1

## O=C(O)c1cc(=O)c2c(OCC(O)COc3cccc4oc(C(=O)O)cc(=O)c34)cccc2o1 [OC-101, cromolyn, reference compound]
[1]; 50 mg/kg/day oral, week 0
  Body weight, Mean: 23.9 g
[1]; 50 mg/kg/day oral, week 1
  Body weight, Mean: 23.4 g
[1]; 50 mg/kg/day oral, week 2
  Body weight, Mean: 23.5 g
[1]; 50 mg/kg/day oral, week 3
  Body weight, Mean: 23.3 g
[1]; 50 mg/kg/day oral, week 4
  Body weight, Mean: 23.5 g
[1]; 50 mg/kg/day oral, week 5
  Body weight, Mean: 23.4 g
[1]; 50 mg/kg/day oral, week 6
  Body weight, Mean: 23.5 g
[1]; 50 mg/kg/day oral, week 7
  Body weight, Mean: 23.4 g
[1]; 50 mg/kg/day oral, week 8
  Body weight, Mean: 23.2 g
[1]; 50 mg/kg/day oral, week 10
  Body weight, Mean: 23 g
[2]; 50 mg/kg/day oral, week 0
  Feed intake, Mean: 6.23
[2]; 50 mg/kg/day oral, week 1
  Feed intake, Mean: 5.98
[2]; 50 mg/kg/day oral, week 2
  Feed intake, Mean: 6.35
[2]; 50 mg/kg/day oral, week 3
  Feed intake, Mean: 5.47
[2]; 50 mg/kg/day oral, week 4
  Feed intake, Mean: 4.28
[2]; 50 mg/kg/day oral, week 5
  Feed intake, Mean: 4.51
[2]; 50 mg/kg/day oral, week 6
  Feed intake, Mean: 4.29
[2]; 50 mg/kg/day oral, week 7
  Feed intake, Mean: 4.41
[2]; 50 mg/kg/day oral, week 8
  Feed intake, Mean: 4.37
[2]; 50 mg/kg/day oral, week 9
  Feed intake, Mean: 4.51
[2]; 50 mg/kg/day oral, week 10
  Feed intake, Mean: 4.28
[3]; 50 mg/kg/day oral, week 0
  Drinking water intake, Mean: 6.78
[3]; 50 mg/kg/day oral, week 1
  Drinking water intake, Mean: 8.11
[3]; 50 mg/kg/day oral, week 2
  Drinking water intake, Mean: 7.68
[3]; 50 mg/kg/day oral, week 3
  Drinking water intake, Mean: 6.99
[3]; 50 mg/kg/day oral, week 4
  Drinking water intake, Mean: 7.23
[3]; 50 mg/kg/day oral, week 5
  Drinking water intake, Mean: 6.78
[3]; 50 mg/kg/day oral, week 6
  Drinking water intake, Mean: 7.80
[3]; 50 mg/kg/day oral, week 7
  Drinking water intake, Mean: 7.06
[3]; 50 mg/kg/day oral, week 8
  Drinking water intake, Mean: 7.17
[3]; 50 mg/kg/day oral, week 9
  Drinking water intake, Mean: 7.09
[3]; 50 mg/kg/day oral, week 10
  Drinking water intake, Mean: 6.76
[4]; 50 mg/kg/day oral, week 0, 4 h fasting, in mg/dL (unit assumed)
  Blood glucose level, Mean: 300.9
[4]; 50 mg/kg/day oral, week 2, 4 h fasting, in mg/dL (unit assumed)
  Blood glucose level, Mean: 336.6
[4]; 50 mg/kg/day oral, week 4, 4 h fasting
  Blood glucose level, Mean: 271.1^#
[4]; 50 mg/kg/day oral, week 6, 4 h fasting
  Blood glucose level, Mean: 295.5^#
[4]; 50 mg/kg/day oral, week 8, 4 h fasting
  Blood glucose level, Mean: 259.9^#
[4]; 50 mg/kg/day oral, week 10, 4 h fasting
  Blood glucose level, Mean: 247.8^#
[5]; 50 mg/kg administered group
  GLU compared to disease control group: decreased statistically significantly
[5]; 50 mg/kg/day oral
  CRE, Mean: 0.1 mg/dL
  GLU, Mean: 282.6^# mg/dL
  T-CHO, Mean: 139.3 mg/dL
[6]; 50 mg/kg administered group
  HOMA-IR compared to disease control group: decreased statistically significantly
[6]; 50 mg/kg/day oral
  HOMA-IR, Mean: 8.8^#
  Insulin, Mean: 0.5 ng/mL
[7]; 50 mg/kg/day oral
  Indoxyl sulfate, Mean: 2.0 µg/mL
[8]; G6/G7, 50 mg/kg oral
  Kidney: Medullar apoptosis: 0
  Kidney: Medullar mineralization: 1
  Kidney: NHL: 8
  Kidney: bowman's capsule hyperplasia: 1
  Kidney: pappillary mineralization: 0
  Liver: Apoptosis: 2
  Liver: Cytoplasmic glycogen: 0
  Liver: Eosinophlic focus of cellular alteration: 1
  Liver: Mononuclear cell infiltrate: 3
  Liver: NHL: 5
  Pancrease: Apoptosis: 0
  Pancrease: NHL: 6
  Pancrease: islet degeneration: 2
  Pancrease: islet hypertrophy: 2
  Pancrease: islet, mononuclear cell infillitrate: 1
